Series [1] deals with T1, hT1R1/hT1R3 umami receptor expressed in an HEK293 cell line (Homo sapiens, UniProt Q7RTX0+Q7RTX1).
T1 construct: expressed in transfected cells; host or cells: HEK293 cell line derivative, hT1R1/hT1R3-HEK293-Gα15, clone I-17, mifepristone-induced
T1 sequence (Q7RTX1 21-841): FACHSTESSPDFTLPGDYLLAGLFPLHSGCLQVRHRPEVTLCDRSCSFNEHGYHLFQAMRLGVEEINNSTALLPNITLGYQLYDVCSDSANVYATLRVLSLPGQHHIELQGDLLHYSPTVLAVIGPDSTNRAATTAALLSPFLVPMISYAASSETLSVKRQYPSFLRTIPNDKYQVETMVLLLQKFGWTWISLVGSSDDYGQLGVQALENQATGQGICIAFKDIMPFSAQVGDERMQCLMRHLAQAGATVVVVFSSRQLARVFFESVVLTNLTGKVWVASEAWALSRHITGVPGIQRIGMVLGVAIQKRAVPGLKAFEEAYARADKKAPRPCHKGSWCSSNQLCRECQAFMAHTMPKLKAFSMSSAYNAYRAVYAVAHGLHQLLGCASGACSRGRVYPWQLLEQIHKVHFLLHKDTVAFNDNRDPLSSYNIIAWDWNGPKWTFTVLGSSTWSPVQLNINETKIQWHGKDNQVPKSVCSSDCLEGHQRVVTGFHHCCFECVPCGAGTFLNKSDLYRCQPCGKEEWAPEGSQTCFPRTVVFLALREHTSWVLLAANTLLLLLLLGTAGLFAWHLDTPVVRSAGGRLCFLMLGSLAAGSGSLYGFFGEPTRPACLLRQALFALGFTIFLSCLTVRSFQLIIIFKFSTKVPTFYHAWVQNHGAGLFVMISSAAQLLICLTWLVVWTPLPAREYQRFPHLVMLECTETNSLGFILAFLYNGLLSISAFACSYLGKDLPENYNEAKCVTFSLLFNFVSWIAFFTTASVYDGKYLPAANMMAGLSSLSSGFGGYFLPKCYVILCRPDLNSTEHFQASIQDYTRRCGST
T1 sequence (Q7RTX0 21-852): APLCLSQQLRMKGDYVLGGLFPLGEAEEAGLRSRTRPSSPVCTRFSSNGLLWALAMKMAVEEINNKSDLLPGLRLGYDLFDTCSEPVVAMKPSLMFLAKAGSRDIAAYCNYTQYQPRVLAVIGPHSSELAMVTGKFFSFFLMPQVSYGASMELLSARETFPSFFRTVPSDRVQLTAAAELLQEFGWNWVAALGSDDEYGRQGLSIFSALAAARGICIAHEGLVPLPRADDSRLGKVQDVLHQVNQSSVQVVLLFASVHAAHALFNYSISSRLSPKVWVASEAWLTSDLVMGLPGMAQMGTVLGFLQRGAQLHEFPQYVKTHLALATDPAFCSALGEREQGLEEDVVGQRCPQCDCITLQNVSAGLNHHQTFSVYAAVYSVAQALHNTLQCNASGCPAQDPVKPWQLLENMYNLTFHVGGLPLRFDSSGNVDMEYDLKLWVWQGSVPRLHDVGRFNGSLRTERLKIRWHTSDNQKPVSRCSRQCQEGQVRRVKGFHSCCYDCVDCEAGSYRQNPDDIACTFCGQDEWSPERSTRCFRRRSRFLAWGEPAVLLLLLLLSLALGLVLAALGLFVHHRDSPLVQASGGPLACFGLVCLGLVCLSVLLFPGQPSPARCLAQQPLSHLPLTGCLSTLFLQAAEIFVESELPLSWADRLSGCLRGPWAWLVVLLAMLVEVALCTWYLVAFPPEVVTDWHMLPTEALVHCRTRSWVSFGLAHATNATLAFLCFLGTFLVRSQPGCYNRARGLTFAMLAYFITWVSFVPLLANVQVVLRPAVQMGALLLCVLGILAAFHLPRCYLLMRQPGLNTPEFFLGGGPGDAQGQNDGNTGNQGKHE
Kind of series: In vitro hT1R1/hT1R3 umami taste receptor activation assay (FLIPR, dose response). It counts as cell-based. On the procedure:
Activity was determined using an automated fluorometric imaging assay on a FLIPR instrument ([…], Molecular Devices, Sunnyvale, Calif.) (designated FLIPR assay). […] After replacement with 25 μl D-PBS, stimulation was performed in the FLIPR instrument and at room temperature by the addition of 25 μl D-PBS supplemented with different stimuli at concentrations corresponding to twice the desired final level. Receptor activity was quantified by determining the maximal fluorescence increases (using a 480 nm excitation and 535 nm emission) after normalization to basal fluorescence intensity measured before stimulation.
Activities were normalized to the response obtained with 60 mM monosodium glutamate, a concentration that elicits maximum receptor response.

Series [2] concerns the target T1, hT1R1/hT1R3 umami receptor expressed in an HEK293 cell line. The experiment in a line: Umami taste enhancement activity assay (EC50 ratio vs. MSG, FLIPR). It counts as cell-based. As to conditions: for Ec50 ratio (vs. MSG): Table A. On the procedure: A series of measurements of the dose response is run in solutions comprising MSG alone, then a second dose response is run with MSG in combination with predetermined amounts of a candidate compound of Formula (I) at the same time.
Typical compound concentrations tested were 30 μM, 10 μM, 3 μM, 1 μM, 0.3 μM, 0.1 μM and 0.03 μM. The relative efficacy of compounds of Formula (I) at enhancing the receptor was determined by calculating the magnitude of a shift in the EC50 for monosodium glutamate. Enhancement was defined as a ratio (EC50R) corresponding to the EC50 of monosodium glutamate, determined in the absence of the test compound, divided by the EC50 of monosodium glutamate, determined in the presence of the test compound.
Stated alternatively, “EC50 ratio” as compared to MSG is calculated based on the following definitions: EC50 Ratio vs. MSG=EC50 (MSG)/EC50 (MSG+[Compound]) • wherein “[compound]” refers to the concentration of the compound of Formula (I) used to elicit (or enhance or potentiate) the MSG dose response.

The subject of the next series is un-induced I-17 cells. Kind of series: FLIPR assay on un-induced I-17 cells (receptor dependency control). It counts as cell-based. As to conditions: un-induced I-17 cells (no mifepristone). On the procedure: In order to determine the dependency of hT1R1/hT1R3 for the cell response to different stimuli, selected compounds were subjected to a similar analysis on I-17 cells that had not been induced for receptor expression with mifepristone (designated as un-induced I-17 cells). […] Compounds were presented to un-induced umami cells at […]—or three times the maximum stimulation used in the dose-response analysis.

The mark [3] stands for this setting: read-out: EC50 for activation of a hT1R1/hT1R3 umami receptor expressed in an HEK293 cell line.
Setting [4] is: Table A, triazoles, read-out: Umami EC50.

Like-named read-outs stand apart in the source and are kept apart here.

As usually defined, the melting point is the temperature of the solid-liquid transition. For `Cc1ccc(-c2nc(SCc3ccccn3)n[nH]2)c(C)c1` [Example 3, 2-((5-(2,4-dimethylphenyl)-1H-1,2,4-triazol-3-ylthio)methyl)pyridine], the melting point lay within 112 to 114 °C. Besides, the EC50 in series [1] (setting [3]) was 0.09 µM. For the same molecule, in series [2] (compound present at 0.01 μM), the “EC50 ratio (enhanced the effectiveness of monosodium glutamate)” value is 4.3.
As for `Cc1cc(-c2nc(SCc3ccccn3)n[nH]2)oc1C` [Example 5, 2-((5-(4,5-dimethylfuran-2-yl)-1H-1,2,4-triazol-3-ylthio)methyl)pyridine], the EC50 in series [1] (setting [3]) was determined as 0.58 µM. Also, in series [2] (compound present at 0.1 μM), the “EC50 ratio (enhanced the effectiveness of monosodium glutamate)” value was 4.4.
Turning to `c1ccc(CSc2n[nH]c(-c3cc4ccccc4o3)n2)nc1` [Example 6], the EC50 in series [1] (setting [3]) is 2.58 µM. In addition, the “EC50 ratio (enhanced the effectiveness of monosodium glutamate)” value in series [2] (compound present at 0.1 μM) was 2.88.
Take `Cc1cc(-c2nc(SCc3ccccn3)n[nH]2)c(C)o1` [Example 7, 2-((5-(2,5-dimethylfuran-3-yl)-1H-1,2,4-triazol-3-ylthio)methyl)pyridine]: the EC50 in series [1] (setting [3]) was 2.07 µM. The “EC50 ratio (enhanced the effectiveness of monosodium glutamate)” value in series [2] (compound present at 0.1 μM) amounted to 2.1.
Take `Cc1cc(-c2nc(SCCc3ccccn3)n[nH]2)oc1C` [Example 8, 2-(2-(5-(4,5-dimethylfuran-2-yl)-1H-1,2,4-triazol-3-ylthio)ethyl)pyridine]: the EC50 in series [1] (setting [3]) came to 1.87 µM. For the same molecule, in series [2] (compound present at 0.1 μM), the “EC50 ratio (enhanced the effectiveness of monosodium glutamate)” value is given as 2.66.
Take `COc1ccc(Cc2nc(SCc3ccccn3)n[nH]2)c(OC)c1` [Example 9, 2-((5-(2,4-dimethoxybenzyl)-1H-1,2,4-triazol-3-ylthio)methyl)pyridine]: the EC50 in series [1] (setting [3]) amounted to 1.2 µM. In addition, in series [2] (compound present at 0.1 μM), the “EC50 ratio (enhanced the effectiveness of monosodium glutamate)” value is on record as 2.66.
Turning to `Cc1ccc(-c2n[nH]c(SCc3ccccn3)n2)cc1` [Example A1, 2-((5-p-tolyl-2H-1,2,4-triazol-3-ylthio)methyl)pyridine], the EC50 in series [1] (setting [4]) came to 0.17 µM. Also, the “Ec50 ratio (vs. MSG)” value in series [2] (@ 0.01 μM compound) amounted to 2.19.
Regarding `COc1cccc(-c2n[nH]c(SCc3ccccn3)n2)c1OC` [Example A2, 2-((5-(2,3-dimethoxyphenyl)-2H-1,2,4-triazol-3-ylthio)methyl)pyridine], the EC50 in series [1] (setting [4]) turned out to be 0.18 µM. The “Ec50 ratio (vs. MSG)” value in series [2] (@ 0.01 μM compound) is reported as 1.9.
As to `COc1ccc(-c2n[nH]c(SCc3ccccn3)n2)c(C)c1` [Example A3, 2-((5-(4-methoxy-2-methylphenyl)-2H-1,2,4-triazol-3-ylthio)methyl)pyridine], the EC50 in series [1] (setting [4]) was 0.24 µM. Besides, in series [2] (@ 0.3 μM compound), the “Ec50 ratio (vs. MSG)” value was determined as 2.01.
As for `COc1ccc(-c2n[nH]c(SCc3ccccn3)n2)c(OC)c1` [Example A4, 2-((5-(2,4-dimethoxyphenyl)-2H-1,2,4-triazol-3-ylthio)methyl)pyridine], the EC50 in series [1] (setting [4]) turned out to be 0.37 µM. Moreover, in series [2] (@ 0.1 μM compound), the “Ec50 ratio (vs. MSG)” value was found to be 6.22.
As to `CC(C)c1ccc(-c2n[nH]c(SCc3ccccn3)n2)cc1` [Example A5, 2-((5-(4-isopropylphenyl)-2H-1,2,4-triazol-3-ylthio)methyl)pyridine], the EC50 in series [1] (setting [4]) stood at 0.42 µM. Also, in series [2] (@ 0.03 μM compound), the “Ec50 ratio (vs. MSG)” value is recorded as 1.5.
Take `CCOc1ccc(-c2n[nH]c(SCc3ccccn3)n2)cc1` [Example A7, 2-((5-(4-ethoxyphenyl)-2H-1,2,4-triazol-3-ylthio)methyl)pyridine]: the EC50 in series [1] (setting [4]) turned out to be 0.74 µM. In addition, the “Ec50 ratio (vs. MSG)” value in series [2] (@ 0.03 μM compound) is listed as 2.33.
On to `c1ccc(CSc2nc(-c3ccc4c(c3)OCO4)n[nH]2)nc1` [Example A10, 2-((5-(benzo[d][1,3]dioxol-5-yl)-2H-1,2,4-triazol-3-ylthio)methyl)pyridine], for which the EC50 in series [1] (setting [4]) turned out to be 1.18 µM. Further, the “Ec50 ratio (vs. MSG)” value in series [2] (@ 0.3 μM compound) was 6.01.
`Cc1ccccc1-c1n[nH]c(SCc2ccccn2)n1` [Example A12, 2-((5-o-tolyl-2H-1,2,4-triazol-3-ylthio)methyl)pyridine]: the EC50 in series [1] (setting [4]) was 1.86 µM. Also, the “Ec50 ratio (vs. MSG)” value in series [2] (@ 0.1 μM compound) was 1.97.
Consider `COc1ccccc1-c1n[nH]c(SCc2ccccn2)n1` [Example A13, 2-((5-(2-methoxyphenyl)-2H-1,2,4-triazol-3-ylthio)methyl)pyridine], for which, in series [1] (setting [4]), the EC50 worked out at 2.12 µM. Further, the “Ec50 ratio (vs. MSG)” value in series [2] (@ 0.3 μM compound) worked out at 7.36.
For the molecule `Clc1cccc(-c2n[nH]c(SCc3ccccn3)n2)c1` [Example A15, 2-((5-(3-chlorophenyl)-2H-1,2,4-triazol-3-ylthio)methyl)pyridine], in series [1] (setting [4]), the EC50 came to 2.54 µM. The “Ec50 ratio (vs. MSG)” value in series [2] (@ 0.1 μM compound) was found to be 2.
In the case of `COc1cc(OC)cc(-c2n[nH]c(SCc3ccccn3)n2)c1` [Example A16, 2-((5-(3,5-dimethoxyphenyl)-2H-1,2,4-triazol-3-ylthio)methyl)pyridine], the EC50 in series [1] (setting [4]) came out at 2.58 µM. The “Ec50 ratio (vs. MSG)” value in series [2] (@ 0.3 μM compound) is given as 3.16.
As to `c1ccc(-c2n[nH]c(SCc3ccccn3)n2)cc1` [Example A17, 2-((5-phenyl-2H-1,2,4-triazol-3-ylthio)methyl)pyridine], the EC50 in series [1] (setting [4]) is 2.89 µM. In addition, the “Ec50 ratio (vs. MSG)” value in series [2] (@ 0.3 μM compound) was 3.02.
In the same order, the values of `COc1ccc(-c2n[nH]c(SCc3ccccn3)n2)cc1OC` [Example A18, 2-((5-(3,4-dimethoxyphenyl)-2H-1,2,4-triazol-3-ylthio)methyl)pyridine] are 4.08 µM and 2.13.
Turning to `CCOc1ccccc1-c1n[nH]c(SCc2ccccn2)n1` [Example A19, 2-((5-(2-ethoxyphenyl)-2H-1,2,4-triazol-3-ylthio)methyl)pyridine], in series [1] (setting [4]), the EC50 was 6.49 µM. Besides, the “Ec50 ratio (vs. MSG)” value in series [2] (@ 0.3 μM compound) is 2.01.
As to `COc1cc(OC)cc(-c2n[nH]c(SCCc3ccccn3)n2)c1` [Example A20, 2-(2-(5-(3,5-dimethoxyphenyl)-2H-1,2,4-triazol-3-ylthio)ethyl)pyridine], in series [1] (setting [4]), the EC50 worked out at 7.37 µM. Also, in series [2] (@ 0.3 μM compound), the “Ec50 ratio (vs. MSG)” value turned out to be 4.84.
Turning to `N[C@@H](CCC(=O)O)C(=O)[O-].[Na+]` [monosodium glutamate], the “functional response in the FLIPR assay” value in the series on un-induced I-17 cells was “do not show any functional response”.
